Converted amounts (≈) assume the structure as drawn.
Key:
Format in all cases: cell-based
[1] = tested on: P-388 (suspension culture of a lymphoid neoplasm from DBA/2 mouse); experiment: Antitumor screening, growth inhibition of P-388 cells; conditions: P388, 72 h, three days of incubation at 37°C, approximate IC₅₀ vs control wells, duplicate
Experimental: (§1) Cells were maintained in logarithmic phase of growth in Eagle's Minimum Essential Medium, with Earle's Balanced Salts, with 2.0 mM L-Glutamine, with non-essential Amino Acids, without Sodium Bicarbonate (EMEM/NEAA); supplemented with 10% Fetal Calf Serum (FCS), 10⁻² M Sodium Bicarbonate and 0,1 g/1 Penicillin-G + Streptomycin Sulfate.
(§2) A simple screening procedure was carried out to determine and compare the antitumor activity of these compounds, using an adapted form of the method described by Bergeron et al., Biochem. Biophys. Res. Comm. (1984) 121 848 [Reference 6]. The antitumor cell employed was P-388 (suspension culture of a lymphoid neoplasm from DBA/2 mouse), A-549 (monolayer culture of a human lung carcinoma), HT-29 (monolayer culture of a human colon carcinoma) and MEL-28 (monolayer culture of a human melanoma).
(§3) P-388 cell were seeded into 16 mm wells at 1 x 10⁴ cells per well in 1 ml aliquots of MEM 5FCS containing the indicated concentration of drug. A separate set of cultures without drug was seeded as control growth to ensure that cells remained in exponential phase of growth. All determinations were carried out in duplicate. After three days of incubation at 37°C, 10% CO₂ in a 98% humid atmosphere, an approximate IC₅₀ was determined by comparing the growth in wells with drug to the growth in control wells.

[2] = tested on: A-549 (monolayer culture of a human lung carcinoma); experiment: Antitumor screening, growth inhibition of A-549 cells (Crystal Violet staining); conditions: A549, 72 h, three days of incubation at 37°C, approximate IC₅₀ vs control wells, duplicate
Experimental: as §1, §2
as §3, with “A-549, HT-29 and MEL-28 were” for “P-388 cell were”, “at 2” for “at 1”, “[…]” for “1 ml”, “MEM 10FCS” for “MEM 5FCS”, “atmosphere, the wells were stained with 0.1% Crystal Violet. An” for “atmosphere, an”

[3] = tested on: HT-29 (monolayer culture of a human colon carcinoma); experiment: Antitumor screening, growth inhibition of HT-29 cells (Crystal Violet staining); conditions: 72 h, three days of incubation at 37°C, approximate IC₅₀ vs control wells, duplicate
Experimental: as §1, §2
as §3, with “A-549, HT-29 and MEL-28 were” for “P-388 cell were”, “at 2” for “at 1”, “[…]” for “1 ml”, “MEM 10FCS” for “MEM 5FCS”, “atmosphere, the wells were stained with 0.1% Crystal Violet. An” for “atmosphere, an”

[4] = tested on: MEL-28 (monolayer culture of a human melanoma); experiment: Antitumor screening, growth inhibition of MEL-28 cells (Crystal Violet staining); conditions: SK-MEL-28, 72 h, three days of incubation at 37°C, approximate IC₅₀ vs control wells, duplicate
Experimental: as §1, §2
as §3, with “A-549, HT-29 and MEL-28 were” for “P-388 cell were”, “at 2” for “at 1”, “[…]” for “1 ml”, “MEM 10FCS” for “MEM 5FCS”, “atmosphere, the wells were stained with 0.1% Crystal Violet. An” for “atmosphere, an”

Structure (SMILES)	IC50 [1]	IC50 [2]	IC50 [3]	IC50 [4]
CC(O)C(O)C(O)CC(O)c1coc(Cc2cnco2)n1 (stereo not drawn)	> 20 µg/mL	5 µg/mL (≈ 16.8 µM)	5 µg/mL (≈ 16.8 µM)	5 µg/mL (≈ 16.8 µM)
CCCCCCCCCCCCCCCCCCCCC(=O)OC(CC(O)C(O)C(C)O)c1coc(Cc2cnco2)n1 (stereo not drawn) [Digonazole (6), Digonazole]	2.5 µg/mL (≈ 4.12 µM)	0.2 µg/mL (≈ 0.33 µM)	0.2 µg/mL (≈ 0.33 µM)	–
CCCCCCCCCCCCCCCCCCCCC(=O)OC(CC(OC(C)=O)C(OC(C)=O)C(C)OC(C)=O)c1coc(Cc2cnco2)n1 (stereo not drawn) [Digonazole triacetate (8), Digonazole triacetate]	0.2 µg/mL	0.01 µg/mL	0.02 µg/mL	0.01 µg/mL
CC(=O)OC(CC(OC(C)=O)C(OC(C)=O)C(C)OC(C)=O)c1coc(Cc2cnco2)n1 (stereo not drawn) [Tetraacetoxyhexyl dioxazole (10), Tetraacetoxyhexyl dioxazole]	10 µg/mL (≈ 21.4 µM)	1 µg/mL (≈ 2.14 µM)	0.5 µg/mL (≈ 1.07 µM)	10 µg/mL (≈ 21.4 µM)

Source: EP0687673A1, “Oxazole derivatives as antitumoral agents” (PHARMA MAR, S.A., priority 1994, dated 1995)
